Measured values from patent publication US20150246898A1, “METALLOENZYME INHIBITOR COMPOUNDS” (DOW AGROSCIENCES LLC, priority 2012, published 2015).
In brackets after ≈: the same amount, converted by molar mass.

Tests used:
[1] = tested on: Septoria tritici (ATCC 26517); experiment: Minimum Inhibitory Concentration (MIC) vs. Septoria tritici, CLSI-based microdilution; assay type: cell-based; details: Zymoseptoria tritici, ATCC26517, 168 h; MIC = 50% reduction in growth of S. tritici, 7 days at 22 °C, RPMI/MOPS, 1% DMSO; read-out: Septoria Rating (MIC)
Protocol: Compounds of the present disclosure were assessed for their ability to inhibit the growth of a common strain of the fungal plant pathogen Septoria tritici (ATCC 26517) using a procedure based on a Clinical and Laboratory Standards Institute (CLSI) microdilution assay protocol for filamentous fungi. Stock solutions of the test compounds and standards were prepared in DMSO at 6400 μg/mL. Each stock solution was used to prepare a 2-fold dilution series ranging from 16 to 0.016 μg/mL (total of 11 compound concentrations) in RPMI-1640 (Roswell Park Memorial Institute) medium containing 3-(N-morpholino)propanesulfonic acid (MOPS) buffer and 2% DMSO. A 100 μL aliquot of the dilutions was added to columns 1 (16 μg/mL compound) through 11 (0.016 μg/mL compound) of a 96-well microtiter plate. This format was replicated in a second row of the microtiter plate. Thus, each microtiter plate could include 11 concentrations of four test or control compounds replicated twice. A 100 μL aliquot of RPMI-1640/MOPS/2% DMSO medium was added to column 12 (no compound control) of the microtiter plate. A fresh culture of S. tritici was used to prepare a solution of approximately 5×10^4 colony-forming units per milliliter (cfu/mL) in RPMI/MOPS medium without DMSO. A 100 μL aliquot of this solution was added to all 96 wells in the microtiter plate. […] In each case of Table 3 the Septoria rating scale is as follows: […]

[2] = tested on: Puccinia recondita tritici = Puccinia triticina (PUCCRT); experiment: Fungicidal activity vs. leaf rust on wheat plants (1-day protectant spray); assay type: in vivo; details: wheat (variety Yuma) sprayed at 50 ppm, inoculated next day, disease severity evaluated 7-9 days later, read-out: Puccinia Rating (% Disease Control @ 50 ppm)
Source text: Each pot contained 3-8 seedlings. These plants were sprayed until wet with the formulated test compounds. The compounds were formulated at 50 ppm in 10 vol. % acetone plus 90 vol. % Triton X water (deionized water 99.99 wt %+0.01 wt % Triton X100), giving a “formulated test compound.” Formulated test compounds were applied to plants using a turn table sprayer fitted with two opposing air atomization nozzles which delivered approximately 1500 L/ha of spray volume. On the following day, the leaves were inoculated with an aqueous spore suspension of Puccinia recondita tritici and the plants were kept in high humidity overnight to permit spores to germinate and infect the leaf. The plants were then transferred to a greenhouse until disease developed on untreated control plants. Disease severity was evaluated 7-9 days later, depending on the speed of disease development. In each case of Table 3, the Puccinia rating scale is as follows: […]

| SMILES | MIC [1] | pest or weed control at 50 ppm [2] |
| --- | --- | --- |
| OC(c1cncnc1)(c1ccc(F)cc1F)C(F)(F)c1ccc(-c2ccc(OC(F)(F)F)cc2)cn1 (racemic) [Example 3, 1-(2,4-difluorophenyl)-2,2-difluoro-1-(pyrimidin-5-yl)-2-(5-(4-(trifluoromethoxy)phenyl)pyridin-2-yl)ethanol] | 0.5 to 1.5 µg/mL (≈ 0.982 to 2.94 µM) | < 40% |
| OC(c1cccnn1)(c1ccc(F)cc1F)C(F)(F)c1ccc(C#Cc2ccc(F)cc2)cn1 (racemic) [Example 24] | > 4 µg/mL |  |
| OC(c1cnccn1)(c1ccc(F)cc1F)C(F)(F)c1ccc(C#Cc2ccc(F)cc2)cn1 (racemic) [Example 25] |  | < 40% |
| OC(c1c[nH]nn1)(c1ccc(F)cc1F)C(F)(F)c1ccc(C#Cc2ccc(F)cc2)cn1 (racemic) [Example 26] | > 4 µg/mL |  |
| OC(c1cc[nH]n1)(c1ccc(F)cc1F)C(F)(F)c1ccc(C#Cc2ccc(F)cc2)cn1 (racemic) [Example 30] | 1.5 to 4 µg/mL (≈ 3.29 to 8.78 µM) |  |
| CNc1ccc(CCc2ccc(C(F)(F)C(O)(c3cncnc3)c3ccc(F)cc3F)nc2)cc1 (racemic) [Example 33] | ≤ 0.5 µg/mL |  |
| OC(c1cncnc1)(c1ccc(F)cc1F)C(F)(F)c1ccc(Oc2ccc(Cl)cc2)cn1 (racemic) [Example 40] | > 4 µg/mL |  |
| CCCC(O)(c1cncnc1)C(F)(F)c1ccc(C#Cc2ccc(C#N)cc2)cn1 (racemic) [Example 45] | 1.5 to 4 µg/mL (≈ 3.71 to 9.89 µM) |  |
| CCC(O)(c1cncnc1)C(F)(F)c1ccc(C#Cc2ccc(C#N)cc2)cn1 (racemic) [Example 46] | 1.5 to 4 µg/mL (≈ 3.84 to 10.2 µM) |  |
| COc1ccc(COc2ccc(C(F)(F)C(O)(c3cncnc3)c3ccc(F)cc3F)nc2)cc1 (racemic) [Example 49] | 0.5 to 1.5 µg/mL (≈ 1.03 to 3.09 µM) |  |
| CC(C)C(O)(c1cncnc1)C(F)(F)c1ccc(OCc2ccc(Cl)cc2F)cn1 (racemic) [Example 50] | 1.5 to 4 µg/mL (≈ 3.43 to 9.14 µM) |  |
| CC(C)C(O)(c1cncnc1)C(F)(F)c1ccc(OCc2ccc(Cl)cc2)cn1 (racemic) [Example 53] | 0.5 to 1.5 µg/mL (≈ 1.19 to 3.57 µM) |  |
| OC(c1cncnc1)(c1ccc(F)cc1F)C(F)(F)c1ccc(OCc2ccc(C(F)F)cc2)cn1 (racemic) [Example 54] | > 4 µg/mL |  |
| CC(C)C(O)(c1cncnc1)C(F)(F)c1ccc(OCc2ccc(C#N)cc2)cn1 (racemic) [Example 57] | > 4 µg/mL |  |
| O=[N+]([O-])c1ccc(COc2ccc(C(F)(F)C(O)(c3cncnc3)c3ccc(F)cc3F)nc2)cc1 (racemic) [Example 58] | 1.5 to 4 µg/mL (≈ 3 to 7.99 µM) |  |
| OC(c1cncnc1)(c1ccc(F)cc1F)C(F)(F)c1ccc(OCc2cccc(Cl)c2)cn1 (racemic) [Example 59] | 0.5 to 1.5 µg/mL (≈ 1.02 to 3.06 µM) |  |
| CC(C)C(O)(c1cncnc1)C(F)(F)c1ccc(C#Cc2ccc(F)cc2)cn1 (racemic) [Example 63] | 0.5 to 1.5 µg/mL (≈ 1.26 to 3.77 µM) |  |
| N#Cc1ccc(COc2ccc(C(F)(F)C(O)(c3cncnc3)c3ccc(F)cc3F)nc2)c(F)c1 (racemic) [Example 68] |  | 80 to 100% |
| OC(c1cncnc1)(C(F)(F)F)C(F)(F)c1ccc(-c2ccc(Cl)cc2)cn1 (racemic) [Example 71, 1-(5-(4-Chlorophenyl)pyridin-2-yl)-1,1,3,3,3-pentafluoro-2-(pyrimidin-5-yl)propan-2-ol] | ≤ 0.5 µg/mL |  |
| OC(c1ccc(Cl)cc1)(c1cncnc1)C(F)(F)c1ccc(Oc2cccc(Cl)c2)cn1 (stereo not drawn) [Example 61] | 1.5 to 4 µg/mL (≈ 3.16 to 8.43 µM) |  |
| OC(c1ccc(Cl)cc1)(c1cncnc1)C(F)(F)c1ccc(OCc2ccc(Cl)cc2)cn1 (stereo not drawn) [Example 69] |  | < 40% |

More lines, main results first:

| MIC [1] | SMILES | pest or weed control at 50 ppm [2] |
| --- | --- | --- |
| > 4 µg/mL | N#Cc1ccc(-c2ccc(C(F)(F)C(O)(c3cncnc3)c3ccc(F)cc3F)nc2)cc1 (racemic) [Example 4, 4-(6-(2-(2,4-difluorophenyl)-1,1-difluoro-2-hydroxy-2-(pyrimidin-5-yl)ethyl)pyridin-3-yl)benzonitrile] |  |
| ≤ 0.5 µg/mL | N#Cc1ccc(C#Cc2ccc(C(F)(F)C(O)(c3cncnc3)c3ccc(F)cc3F)nc2)cc1 (racemic) [Example 5, 4-((6-(2-(2,4-difluorophenyl)-1,1-difluoro-2-hydroxy-2-(pyrimidin-5-yl)ethyl)pyridin-3-yl)ethynyl)benzonitrile] | 80 to 100% |
| > 4 µg/mL | OC(c1cncnc1)(c1ccc(F)cc1F)C(F)(F)c1ccc(C#CCOCC(F)(F)F)cn1 (racemic) [Example 6, 1-(2,4-difluorophenyl)-2,2-difluoro-1-(pyrimidin-5-yl)-2-(5-(3-(2,2,2-trifluoroethoxy)prop-1-ynyl)pyridin-2-yl)ethanol] |  |
| ≤ 0.5 µg/mL | CNc1ccc(C#Cc2ccc(C(F)(F)C(O)(c3cncnc3)c3ccc(F)cc3F)nc2)cc1 (racemic) [Example 7, 1-(2,4-difluorophenyl)-2,2-difluoro-2-(5-((4-(methylamino)phenyl)ethynyl)pyridin-2-yl)-1-(pyrimidin-5-yl)ethanol] | < 40% |
| 0.5 to 1.5 µg/mL (≈ 1.24 to 3.72 µM) | OCC#Cc1ccc(C(F)(F)C(O)(c2cncnc2)c2ccc(F)cc2F)nc1 (racemic) [Example 8, 3-(6-(2-(2,4-difluorophenyl)-1,1-difluoro-2-hydroxy-2-(pyrimidin-5-yl)ethyl)pyridin-3-yl)prop-2-yn-1-ol] | 80 to 100% |
| ≤ 0.5 µg/mL | OC(c1cncnc1)(c1ccc(F)cc1F)C(F)(F)c1ccc(OCc2ccc(Cl)cc2F)cn1 (racemic) [Example 10] | 80 to 100% |
| ≤ 0.5 µg/mL | N#Cc1ccc(C#Cc2ccc(C(F)(F)C(O)(c3cncnc3)c3ccc(F)cc3F)nc2)cc1F (racemic) [Example 11] | 80 to 100% |
| ≤ 0.5 µg/mL | N#Cc1ccc(C#Cc2ccc(C(F)(F)C(O)(c3cncnc3)c3ccc(F)cc3F)nc2)c(F)c1 (racemic) [Example 12, 4-((6-(2-(2,4-Difluorophenyl)-1,1-difluoro-2-hydroxy-2-(pyrimidin-5-yl)ethyl)pyridin-3-yl)ethynyl)-3-fluorobenzonitrile] | 80 to 100% |
| ≤ 0.5 µg/mL | OC(c1cncnc1)(c1ccc(F)cc1F)C(F)(F)c1ccc(C#Cc2ccc(Cl)cc2)cn1 (racemic) [Example 13] | 80 to 100% |
| ≤ 0.5 µg/mL | OC(c1cncnc1)(c1ccc(F)cc1F)C(F)(F)c1ccc(C#Cc2ccc(OC(F)(F)F)cc2)cn1 (racemic) [Example 14] | 80 to 100% |
| ≤ 0.5 µg/mL | COc1ccc(C#Cc2ccc(C(F)(F)C(O)(c3cncnc3)c3ccc(F)cc3F)nc2)cc1 (racemic) [Example 15] | 60 to 79% |
| 0.5 to 1.5 µg/mL (≈ 1.05 to 3.16 µM) | N#Cc1ccc(C#Cc2ccc(C(F)(F)C(O)(c3cncnc3)c3ccc(F)cc3F)nc2)cn1 (racemic) [Example 17] |  |
| ≤ 0.5 µg/mL | Oc1ccc(C#Cc2ccc(C(F)(F)C(O)(c3cncnc3)c3ccc(F)cc3F)nc2)cc1 (racemic) [Example 19, 4-((6-(2-(2,4-Difluorophenyl)-1,1-difluoro-2-hydroxy-2-(pyrimidin-5-yl)ethyl)pyridin-3-yl)ethynyl)phenol] |  |
| 1.5 to 4 µg/mL (≈ 3.03 to 8.07 µM) | CSc1ccc(C#Cc2ccc(C(F)(F)C(O)(c3cncnc3)c3ccc(F)cc3F)nc2)cc1 (racemic) [Example 22] |  |
| 1.5 to 4 µg/mL (≈ 3.05 to 8.12 µM) | O/N=C/c1ccc(C#Cc2ccc(C(F)(F)C(O)(c3cncnc3)c3ccc(F)cc3F)nc2)cc1 (racemic) [Example 23] |  |
| 1.5 to 4 µg/mL (≈ 3.18 to 8.47 µM) | OC(c1cncs1)(c1ccc(F)cc1F)C(F)(F)c1ccc(C#Cc2ccc(F)cc2)cn1 (racemic) [Example 28] |  |
| > 4 µg/mL | OC(c1cnco1)(c1ccc(F)cc1F)C(F)(F)c1ccc(C#Cc2ccc(F)cc2)cn1 (racemic) [Example 29] |  |
| 0.5 to 1.5 µg/mL (≈ 1.05 to 3.14 µM) | O=Cc1ccc(C#Cc2ccc(C(F)(F)C(O)(c3cncnc3)c3ccc(F)cc3F)nc2)cc1 (racemic) [Example 31] |  |
| ≤ 0.5 µg/mL | N#Cc1ccc(CCc2ccc(C(F)(F)C(O)(c3cncnc3)c3ccc(F)cc3F)nc2)cc1 (racemic) [Example 32] |  |
| ≤ 0.5 µg/mL | OC(c1cncnc1)(c1ccc(F)cc1F)C(F)(F)c1ccc(C#Cc2ccc(NCC(F)(F)F)cc2)cn1 (racemic) [Example 36] |  |
| > 4 µg/mL | N#Cc1ccc(C#Cc2ccc(C(F)(F)C(O)(c3ccc(F)cc3)c3cncnc3)nc2)cc1 (racemic) [Example 44] |  |
| 0.5 to 1.5 µg/mL (≈ 1.04 to 3.12 µM) | N#Cc1ccc(COc2ccc(C(F)(F)C(O)(c3cncnc3)c3ccc(F)cc3F)nc2)cc1 (racemic) [Example 56] |  |
| 0.5 to 1.5 µg/mL (≈ 1.06 to 3.17 µM) | N#Cc1cccc(C#Cc2ccc(C(F)(F)C(O)(c3ccc(Cl)cc3)c3cncnc3)nc2)c1 (racemic) [Example 66] |  |
